Structures can show the parent of a compound that is named as a salt.
Test: Solubility in water
Assay type: physicochemical
Conditions: 500 mg upon stirring in 8 oz of room temperature water

solubility in water: dissolved completely
Compound: Cn1c(=O)c2c([nH]c(=O)n2C)n(C)c1=O [1,3,7-trimethyluric acid sodium salt]
